Columns and labels:
[1] = tested on: FCS-stimulated production of superoxides (O2^−) in normal human monocytes; assay: FCS-stimulated superoxide production of normal human monocytes in vitro (INT-formazan); assay type: cell-based; details: for INT-Formazan / O2^−: FCS 10%; for INT-Formazan / Comparison to control (%): Table 4 series
Method: As already described, monocytes were isolated from 50 ml of venous blood which was repeatedly donated voluntarily for the experiments by healthy non-smoking subjects (n=4). […] To this end, the active compounds were incubated together with freshly isolated monocytes (10^5/ml) and the FCS stimulus (10%, from Sigma) for 20 hours in a cell culture medium (RPMI-1640, from Sigma). […] The determination of the cytosolic superoxide production is based on the reduction of the dye p-iodonitrotetrazolium violet (INTV), which reacts specifically with superoxide ions, to iodonitrotetrazolium formazan (formazan). INTV is taken up by the cells into the cytosol. Intracellularly, the nitrogen cycle of the INTV is reduced by free superoxide radicals, giving rise to a water-soluble intermediate and the water-insoluble formazan, which have their absorption maxima at 505 and 490 nm, respectively. […] At the end of an experiment, the cell lysate is (after treatment with hydrochloric acid) measured at 492 nm in a photometer. Here, the absorption of light is proportional to the amount of intracellularly accumulated INT-formazan which can then be determined using a formazan calibration curve. The INT-formazan accumulation for its part is determined as a measure for the intracellular production of superoxide.

[2] = tested on: superoxide dismutases (SOD); assay: Superoxide dismutase activity
[3] = tested on: IL-1beta production in LPS-stimulated human monocytes; assay: LPS-stimulated production of IL-1beta in human monocytes in vitro (ELISA); assay type: cell-based
Text: 1,8-Cineol intensifies in particular the action of subtherapeutic concentrations of beclometasone which are relevant for the peripheral respiratory tract.

[4] = tested on: superoxide production (O2^− production) of normal human monocytes; assay: PMA-stimulated superoxide production (INT-formazan) of normal human monocytes in vitro; assay type: cell-based; details: for INT-Formazan: PMA, 20 hours; for O2^− production: FIG. 3
[5] = tested on: hydrogen peroxide (H2O2) production; assay: Hydrogen peroxide production; details: low concentrations relevant for the respiratory air and therapeutic range
[6] = tested on: production of TNF-α in ex-vivo stimulated peripheral human monocytes; assay: TNF-α production in ex-vivo stimulated peripheral monocytes of former smokers under additional therapy; assay type: cell-based; details: long-term additional therapy with 1,8-cineol plus ICS-based therapy
Method: (§1) From these patients, monocytes were obtained during ongoing therapy with ICS and incubated in vitro with a topical glucocorticoid in a dose-dependent manner.

[7] = tested on: production of IL-8 in ex-vivo stimulated peripheral human monocytes; assay: IL-8 production in ex-vivo stimulated peripheral monocytes of former smokers under additional therapy; assay type: cell-based; details: long-term additional therapy with 1,8-cineol plus ICS-based therapy
Method: as §1

[8] = tested on: patients with persistent bronchial asthma (GINA II); assay: Clinical add-on therapy with oral 1,8-cineol, persistent bronchial asthma GINA II, 10 patients; assay type: in vivo, human
Method: 10 patients 56 to 72 years of age with persistent bronchial asthma (GINA II) treated with a combination therapy of inhalative glucocorticoid (beclometasone, 2×200 μg/day by inhalation) and inhalative long-acting beta-2-sympathomimetics (LABA, salmeterol) and also oral theophyllin were given 1,8-cineol (Soledum® capsules) 4×200 mg/day orally for one week. Even after a one-week therapy at the dose mentioned above, in 8 of the 10 subjects a slight to moderate improvement of lung function was achieved. After continuing therapy for a further twelve weeks, the persistent bronchial asthma had stabilized to such an extent that in 7 of the 10 patients the inhalative glucocorticoid required could be reduced by up to 60% and in 2 of the 10 patients the inhalative glucocorticoids could be discontinued altogether at times. […] In 5 of the patients treated, the betamimetics required, too, could be reduced by up to 40%.

[9] = tested on: smokers with COPD (GOLD II to III); assay: Placebo-controlled double-blind study of additional therapy with 1,8-cineol in smokers with COPD; assay type: in vivo, human
Method: In a placebo-controlled double-blind study, the effect of an additional therapy with 1,8-cineol in the form of capsules which dissolve in the small intestine (Soledum® capsules, 3×200 mg/day, oral) on exacerbation rate and lung function was examined in 3 winter months of two successive years using 242 smokers with COPD (GOLD II to III).

[10] = tested on: NO production in stimulated human monocytes; assay: NO production in stimulated human monocytes in vitro (FIG. 3); assay type: cell-based
[11] = 1,8-cineol 6 × 10^−6 mol/l (0.9 μg/ml), Table 6 series
[12] = therapeutic range of 1,8-cineol

SMILES: CC12CCC(CC1)C(C)(C)O2 [1,8-cineol, 1,3,3-trimethyl-2-oxabicyclo-[2.2.2]-octane]
- INT-Formazan ([1]; 0.000015 μg/ml (10^−10 mol/l)): 21360 ± 1766 nmol/10^5
- Comparison to control (%) ([1]; 0.000015 μg/ml (10^−10 mol/l)): −0.7 ± 8%
- INT-Formazan ([1]; 0.00015 μg/ml (10^−9 mol/l)): 21329 ± 1920 nmol/10^5
- Comparison to control (%) ([1]; 0.00015 μg/ml (10^−9 mol/l)): −0.8 ± 9%
- INT-Formazan ([1]; 0.0015 μg/ml (10^−8 mol/l)): 21946 ± 1858 nmol/10^5
- Comparison to control (%) ([1]; 0.0015 μg/ml (10^−8 mol/l)): 2 ± 8%
- INT-Formazan ([1]; 0.015 μg/ml (10^−7 mol/l)): 21899 ± 1879 nmol/10^5
- Comparison to control (%) ([1]; 0.015 μg/ml (10^−7 mol/l)): 1.8 ± 8%
- INT-Formazan ([1]; 0.15 μg/ml (10^−6 mol/l)): 22286 ± 2036 nmol/10^5
- Comparison to control (%) ([1]; 0.15 μg/ml (10^−6 mol/l)): 3.6 ± 9%
- INT-Formazan ([1]; 0.3 μg/ml (2 × 10^−6 mol/l)): 21499 ± 1959 nmol/10^5
- Comparison to control (%) ([1]; 0.3 μg/ml (2 × 10^−6 mol/l)): 0.04 ± 9%
- INT-Formazan ([1]; 0.6 μg/ml (4 × 10^−6 mol/l)): 17240 ± 1637 nmol/10^5
- Comparison to control (%) ([1]; 0.6 μg/ml (4 × 10^−6 mol/l)): −19.8 ± 9%
- INT-Formazan ([1]; 0.9 μg/ml (6 × 10^−6 mol/l)): 12341 ± 1061 nmol/10^5
- Comparison to control (%) ([1]; 0.9 μg/ml (6 × 10^−6 mol/l)): −42.6±8%
- Comparison to control (%) ([1]; 0.9 μg/ml (6 × 10^−6 mol/l), listed as 1,8-Cineol): −42.6 ± 8%
- INT-Formazan ([1]; 1.2 μg/ml (8 × 10^−6 mol/l)): 10086 ± 701 nmol/10^5
- Comparison to control (%) ([1]; 1.2 μg/ml (8 × 10^−6 mol/l)): −53.1 ± 7%
- INT-Formazan ([1]; 1.5 μg/ml (10^−5 mol/l)): 10202 ± 915 nmol/10^5
- Comparison to control (%) ([1]; 1.5 μg/ml (10^−5 mol/l)): −52.6 ± 9%
- O2^− ([1]; 1,8-cineol 4 × 10^−6 mol/l (0.6 μg/ml), Table 5 series): 16323 ± 1069 nmol/mL
- O2^− [1, 11]: 9347 ± 494 nmol/mL
- Percent of control [1, 11]: −50.2±5%
- lowest antioxidatively active concentration ([1]; FCS-stimulated O2^− production): 6e-06 mol/L
- inhibition of the production of O2^− radicals ([1]; therapeutically relevant concentrations of 1,8-cineol, summary): about 50%
- superoxide dismutase activity [2]: partially inhibited
- production of IL-1beta, change ([3]; 1,8-cineol on its own, 10^−6 mol/l, FIG. 1): −32%
- Effect vs. control Inhibition (%) ([3]; cineol 10^−6 mol/l): 32.4±17%
- Effect vs. cineol 10^−6 mol/l Inhibition (%) ([3]; cineol 10^−6 mol/l (the reference itself)): 0 ± 17%
- IL-1beta ([3]; cineol 10^−6 mol/l, LPS, 20 hours): 3548 ± 600 Pg/5 × 10^4 cells
- Effect vs. control Inhibition (%) ([3]; cineol 10^−6 mol/l, listed as cineol): 32.4 ± 17%
- LPS-stimulated production of IL1-beta compared to the LPS control ([3]; therapeutically relevant concentrations of 1,8-cineol, FIG. 2, p<0.01): inhibited by therapeutically relevant concentrations of 1,8-cineol in a dose-dependent manner and significantly
- Comparison with control (%) ([4]; 0.0015 μg/ml (10^−8 mol/l)): +27.6 ± 4%
- INT-Formazan ([4]; 0.0015 μg/ml (10^−8 mol/l)): 5.364 ± 229 nmol/10^5
- Comparison with control (%) ([4]; 0.015 μg/ml (10^−7 mol/l)): +24.5 ± 6%
- INT-Formazan ([4]; 0.015 μg/ml (10^−7 mol/l)): 5235 ± 341 nmol/10^5
- Comparison with control (%) ([4]; 0.15 μg/ml (10^−6 mol/l)): +26.7 ± 7%
- INT-Formazan ([4]; 0.15 μg/ml (10^−6 mol/l)): 5327 ± 360 nmol/10^5
- Comparison with control (%) ([4]; 0.3 μg/ml (2 × 10^−6 mol/l)): +31.8 ± 6%
- INT-Formazan ([4]; 0.3 μg/ml (2 × 10^−6 mol/l)): 5540 ± 359 nmol/10^5
- Comparison with control (%) ([4]; 0.6 μg/ml (4 × 10^−6 mol/l)): +43.8 ± 9%
- INT-Formazan ([4]; 0.6 μg/ml (4 × 10^−6 mol/l)): 6045 ± 534 nmol/10^5
- Comparison with control (%) ([4]; 0.9 μg/ml (6 × 10^−6 mol/l)): +45.3 ± 7%
- INT-Formazan ([4]; 0.9 μg/ml (6 × 10^−6 mol/l)): 6107 ± 437 nmol/10^5
- Comparison with control (%) ([4]; 1.2 μg/ml (8 × 10^−6 mol/l)): −2.5 ± 6%
- INT-Formazan ([4]; 1.2 μg/ml (8 × 10^−6 mol/l)): 4099 ± 234 nmol/10^5
- Comparison with control (%) ([4]; 1.5 μg/ml (10^−5 mol/l)): −42 ± 16%
- INT-Formazan ([4]; 1.5 μg/ml (10^−5 mol/l)): 2438 ± 389 nmol/10^5
- Comparison with control (%) ([4]; 3 μg/ml (2 × 10^−5 mol/l)): −84.9 ± 22%
- INT-Formazan ([4]; 3 μg/ml (2 × 10^−5 mol/l)): 634 ± 139 nmol/10^5
- O2^− production ([4]; low concentrations of 1,8-cineol): slightly induce O2^− production
- O2^− production [4, 12]: inhibited strongly
- production of H2O2 [5]: inhibited the production of O2^− radicals and H2O2
- production of TNF-α compared to normal monocytes of nonsmokers [6]: inhibition of the production of TNF-α
- production of IL-8 compared to normal monocytes of nonsmokers [7]: increased production of IL-8
- tolerability ([8]; 4×200 mg/day orally): tolerated well, without any side-effects
- patients in whom the inhalative glucocorticoid required could be reduced ([8]; 4×200 mg/day orally, after a further twelve weeks): 7 of the 10
- subjects with a slight to moderate improvement of lung function ([8]; 4×200 mg/day orally, after one week, add-on to beclometasone, salmeterol, theophyllin): 8 of the 10
- patients in whom the inhalative glucocorticoids could be discontinued altogether at times ([8]; after a further twelve weeks): 2 of the 10
- reduction of the betamimetics required ([8]; after a further twelve weeks): up to 40%
- reduction of the inhalative glucocorticoid (ICS dose) required ([8]; long-term therapy with oral 1,8-cineol, one plus twelve weeks): up to 60%
- patients in whom the betamimetics required could be reduced ([8]; of 10 patients treated): 5
- St. George's Respiratory Questionnaire (SGRQ), change in the verum group ([9]; 3×200 mg/day, oral): −10.4 units
- lung function (FEV1), change in the verum group ([9]; 3×200 mg/day, oral): +5.1%
- reduction in the exacerbation rate compared to the placebo group ([9]; 3×200 mg/day, oral, 3 winter months of two successive years, 242 smokers): −38.5%
- further reduction of the frequency of exacerbations beyond known combined therapies ([9]; additional therapy with capsules which dissolve in the small intestine): 25%
- production of NO ([10]; subtherapeutic concentrations (0.15 μg/ml=10^−6 mol/l)): inhibit the production of NO
- production of NO [10, 12]: stimulating effects on the production of NO

From patent US11123323B2, “Monoterpenes for treating respiratory disorders, in particular bronchopulmonary disorders” (Maria Clemetine Martin Klosterfrau Vertriebsqesellschaft MBH, priority 2008, dated 2021)
